Laboratory results as given in US6812248B2, “Prevention and treatment of degenerative diseases by glutathione and phase II detoxification enzymes” (John Hopkins University School of Medicine, priority 2000, dated 2004).
Read-outs that look alike come from different tables or passages of the source.

Legend:
motor neurons [1] = settings: earlier use of the culture system as preclinical screen; cited from earlier work
quinone reductase (QR) = system: quinone reductase (QR)
Description: (§1) Mouse spinal cord cultures were prepared and cultured according to Rothstein, J D and Kuncl, R W. J. Neural Chem. 65:643-651 (1995). Cultures were treated with sulforaphane for 24 hours at concentrations of 0,1 μm, 5 μm, 10 μm and 20 μm.
(§2) Mouse spinal cord cultures were prepared and cultured as above. Cultures were treated with sulforaphane for 2 weeks, twice a week, at concentrations of 1 μm, 5 μm and 10 μm.

[2] = system: glutathione transferase (GST)
Description: as §1, §2

SOD-G93 mice = settings: oral daily gavage from weaning; expected result
Description: Method: Transgenic animals will be divided into four groups of 10 animals per group. […] The third group will receive N-acetylcysteine alone, and a fourth group will receive vehicle control (CMC). […] Animals will begin treatment at weaning, and continue oral daily gavage of the drugs. Onset of disease will be monitored by alteration on rotorod performance. Animals will be studied twice weekly starting at 1 month of age. A surrogate survival measure will be determined by the ability of the animals to right themselves after being placed on the cage on their backs. If they are unable to right themselves after 30 seconds, they will be considered dead. The survival and rotorod performance of each group of the animal will be compared.

glutathione (GSH) = settings: 1, 5 or 10 μM for 12 h, 24 h or 48 h; no THA; FIG. 2
Description: Rat spinal cord slices were similarly prepared and cultured as in the above example but without THA treatment. The tissues were cultured for one or two weeks and then incubated with 1 μM, 5, μM, or 10 μM, of sulphoraphane for 12 h, 24 h or 48 h. The tissue slices were then harvested and sonicated and assayed for total GSH content (Richie J P et al., Clinical Chemistry, 42, 64-70, 1996, the contents of which are incorporated herein by reference).

brain glutathione = test: Blood-brain barrier permeability / whole brain GSH levels after daily oral gavage; settings: one week, whole brain homogenate, FIG. 5
motor neurons [3] = settings: spinal cord explant; sulforaphane 0.5, 5, 10 μM for 3 weeks; FIG. 1
Description: The general experimental procedure of THA-induced cytotoxicity was previously described (Ho T et al., Experimental Neurology, 161, 664-675, 2000), the contents of which are incorporated herein by reference. Rodent spinal cord tissue slices were treated with THA and/or sulforaphane. Sulforaphane was administered at concentrations at 0, 0.5 μM, 5 μM and 10 μM for 3 weeks, changing medium every three days. At the end of the experiment, each tissue slice was fixed and stained, and remaining neurons were counted.

[4] = treated 2 weeks, twice a week, at 1, 5, 10 μm, FIG. 4
[5] = treated 24 hours at 1, 5, 10, 20 μm, FIG. 3

## NCC1(CC(=O)O)CCCCC1 [gabapentin, reference compound]
Motor neurons [1]
  Protection against chronic motor neuron degeneration: protective

## Nc1nc2ccc(OC(F)(F)F)cc2s1 [riluzole, reference compound]
Motor neurons [1]
  Protection against chronic motor neuron degeneration: protective

## C[S+]([O-])CCCCN=C=S (stereo not shown) [sulforaphane]
Quinone reductase (QR); [4]
  Induction of QR activity: induced
Quinone reductase (QR); [5]
  Induction of QR activity: induced
[2]; [4]
  Induction of GST activity: induced
[2]; [5]
  Induction of GST activity: induced
SOD-G93 mice
  Survival of the animals compared to control: will improve the survival
Glutathione (GSH)
  Rise of GSH level in treated spinal cord tissue: ≤ 160%
Brain glutathione
  Brain GSH levels: elevate GSH levels in the brain
Motor neurons [3]
  Prevention of THA-induced motor neuron death: significantly prevented THA-induced motor neuron death

## insulin growth factor (IGF-1): insulin growth factor, potential neuroprotective agent
Motor neurons [1]
  Protection against chronic motor neuron degeneration: protective

B1: brain-derived neurotrophic factor (BDNF): brain-derived neurotrophic factor (protein, UniProt P23560 129-247, looked up)
Neurotrophic factor BDNF: HSDPARRGELSVCDSISEWVTAADKKTAVDMSGGTVTVLEKVPVSKGQLKQYFYETKCNPMGYTKEGCRGIDKRHWNSQCRTTQSYVRALTMDSKKRIGWRFIRIDTSCVCTLTIKRGR
modifications: Neurotrophic factor BDNF
Motor neurons [1]
  Protection against chronic motor neuron degeneration: failed to protect

B2: ciliary neurotrophic factor (CNTF): ciliary neurotrophic factor (protein, UniProt P26441 1-200, looked up)
Ciliary neurotrophic factor: MAFTEHSPLTPHRRDLCSRSIWLARKIRSDLTALTESYVKHQGLNKNINLDSADGMPVASTDQWSELTEAERLQENLQAYRTFHVLLARLLEDQQVHFTPTEGDFHQAIHTLLLQVAAFAYQIEELMILLEYKIPRNEADGMPINVGDGGLFEKKLWGLKVLQELSQWTVRSIHDLRFISSHQTGIPARGSHYIANNKKM
Motor neurons [1]
  Protection against chronic motor neuron degeneration: failed to protect
